Measurements reported in patent publication US8729084B2, “Benzofuranyl analogues as GPR119 modulators” (Bristol-Myers Squibb Company, priority 2010, dated 2014).

The compounds below were run against T1, chimeric human/mouse GPR119 (Homo sapiens, UniProt Q8TDV5, A235T/C313R/C323Y/E253K/F304I/F307L/G211A/G245S/H255C/K284R/L224V/L258Q/L288Q/L301F/P218V/P318T/Q252H/R262K/S214P/S219N/S228A/S309P/S322A/T217S/T239S/V227I/V300F) (assay: Tet-inducible cAMP assay (cAMP accumulation, HTRF)). Conditions: not given.
T1 construct: the first 198 amino acids of human GPR119; the C-terminal 137 amino acids of the mouse receptor; expressed in transfected cells
T1 sequence (Q8TDV5 with tags, fused parts or gaps G211A/S214P/T217S/P218V/S219N/L224V/V227I/S228A/A235T/T239S/G245S/Q252H/E253K/H255C/L258Q/R262K/K284R/L288Q/V300F/L301F/F304I/F307L/S309P/C313R/P318T/S322A/C323Y): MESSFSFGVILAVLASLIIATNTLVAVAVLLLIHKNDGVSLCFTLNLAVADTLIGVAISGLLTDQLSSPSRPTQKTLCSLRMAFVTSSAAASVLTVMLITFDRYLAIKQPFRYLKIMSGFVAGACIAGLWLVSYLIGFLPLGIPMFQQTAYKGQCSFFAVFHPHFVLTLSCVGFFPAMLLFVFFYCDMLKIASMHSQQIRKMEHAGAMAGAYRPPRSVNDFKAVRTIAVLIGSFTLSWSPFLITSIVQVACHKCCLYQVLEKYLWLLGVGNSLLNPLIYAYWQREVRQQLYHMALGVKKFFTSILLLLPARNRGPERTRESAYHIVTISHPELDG
Assay type: cell-based
Method: The in vitro modulation of recombinant human GPR119 was determined as follows.
A human-mouse chimeric GPR119 expression construct encoding 3 copies of the FLAG epitope tag, the first 198 amino acids of human GPR119 and the C-terminal 137 amino acids of the mouse receptor was cloned into a tetracycline inducible vector pcDNA5/FRT/TO (Invitrogen #V6520-20), which includes a hygromycin-resistance marker. Tightly controlled receptor expression was achieved by stable integration of this construct into the genome of a specific host cell line, Flp-In-T-Rex-HEK293, expressing the tetracycline repressor (Invitrogen). Once a stable hygromycin-resistant cell line was generated, the cells were maintained at 37° C. in a humidified 5% CO2 atmosphere in culture medium consisting of Dulbecco's modified Eagle's medium (DMEM; Invitrogen #11960) supplemented with 2 mM L-glutamine, 10% fetal bovine serum, 200 μg/ml hygromycin B, and 15 μg/ml blasticidin.
Forty-eight hours prior to the cAMP accumulation assay, cells stably expressing the chimeric human/mouse GPR119 construct were seeded at a density of 4×10^3 cells/well in 384 well poly-D-lysine coated solid white plates (BD #35-6661) and grown at 37° C. in a humidified 5% CO2 atmosphere in culture medium supplemented with 1 μg/ml tetracycline to induce expression of the receptor. On the day of the assay, medium was removed and cells were incubated for 50 min. at 37° C. in a humidified 5% CO2 atmosphere in 20 μl/well of assay buffer (phosphate-buffered saline with Ca^2+ and Mg^2+, 12 mM glucose, 0.1 mM isobutyl-methyl-xanthine, 0.1% fatty-acid free bovine serum albumin) with the desired concentration of compound added from a concentrated stock dissolved in dimethyl sulfoxide (DMSO) to give a final concentration of 1% DMSO in the assay. cAMP accumulation was measured using the CisBio homogeneous time resolved fluorescence (HTRF) assay kit (#62AM2PEC) following the manufacturer's protocol. Briefly, 10 μl each of the cAMP-HTRF fluorescence detection reagents were added to each well, and the samples were incubated for 40 min. at room temperature. Fluorescence was excited at 320 nm and measured at 665 and 620 nm using the Envision instrument (Perkin Elmer), the fluorescence ratio of 665/620 was calculated and converted to nanomolar concentrations of cAMP in each well by interpolation from a cAMP standard curve. The concentration-response curves and EC50 values were calculated with a four parameter logistic curve fit equation utilizing Excel/XLfit software (Microsoft and IDBS). The EC50 value was calculated as the concentration of agonist which increased the cAMP concentration to a value halfway between the baseline and the maximum.
Compounds of the present invention were tested in the Tet-inducible cAMP assay described immediately above and the results shown in Table 2 below were obtained.

SMILES | EC50
CCCc1cnc(N2CCC(C3Cc4cc(C5=CCN(S(=O)(=O)CCC)CC5)cc(F)c4O3)CC2)nc1 (racemic) [Example 5, (±)-2-(4-(7-Fluoro-5-(1-(propylsulfonyl)-1,2,3,6-tetrahydropyridin-4-yl)-2,3-dihydrobenzofuran-2-yl)piperidin-1-yl)-5-propylpyrimidine] | 0.0618 µM
CCCc1cnc(N2CCC(C3Cc4cc(C5=CCN(S(=O)(=O)CCCCO)CC5)cc(F)c4O3)CC2)nc1 (stereo not drawn) [Example 4, 4-(4-(7-Fluoro-2-(1-(5-propylpyrimidin-2-yl)piperidin-4-yl)-2,3-dihydrobenzofuran-5-yl)-5,6-dihydropyridin-1(2H)-ylsulfonyl)butan-1-ol] | 0.168 µM
CCCc1cnc(N2CCC(C3Cc4cc(N5CCN(S(=O)(=O)CCC)CC5)ccc4O3)CC2)nc1 (stereo not drawn) [Example 9, 5-Propyl-2-(4-(5-(4-(propylsulfonyl)piperazin-1-yl)-2,3-dihydrobenzofuran-2-yl)piperidin-1-yl)pyrimidine] | 1.06 µM
CCCS(=O)(=O)N1CC=C(c2ccc3c(c2)CC(C2CCN(C(=O)OC4CCCCC4)CC2)O3)CC1 (stereo not drawn) [Example 44] | 0.0097 µM

Same assay, conditions: Flp-In-T-Rex-HEK293 cells, tetracycline-induced receptor expression; cAMP accumulation after 50 min at 37° C.; read-out: GPR119 EC50

EC50 | SMILES
0.0089 µM | CC1(C2CCN(c3ncc(C4CC4)cn3)CC2)Cc2cc(C3=CCN(S(=O)(=O)CCCCO)CC3)ccc2O1 (stereo not drawn) [Example 11, 4-(4-(2-(1-(5-Cyclopropylpyrimidin-2-yl)piperidin-4-yl)-2-methyl-2,3-dihydrobenzofuran-5-yl)-5,6-dihydropyridin-1(2H)-ylsulfonyl)butan-1-ol]
2.43 µM | CCCS(=O)(=O)N1CCC(C2Cc3cc(C4=CCN(S(C)(=O)=O)CC4)ccc3O2)CC1 (stereo not drawn) [Example 21]
0.0031 µM | CCCS(=O)(=O)N1CC=C(c2cc(F)c3c(c2)CC(C2CCN(c4ncc(Cl)cn4)CC2)O3)CC1 (stereo not drawn) [Example 39]
0.0034 µM | CC(C)CS(=O)(=O)N1CC=C(c2cc(F)c3c(c2)CC(C2CCN(c4ncc(Cl)cn4)CC2)O3)CC1 (stereo not drawn) [Example 40]
0.0827 µM | CCCS(=O)(=O)N1CC=C(c2ccc3c(c2)CC(C2CCN(c4ccc(Cl)cn4)CC2)O3)CC1 (stereo not drawn) [Example 41]
